One assay has as its target Cathepsin L (Homo sapiens, UniProt P07711). Briefly: Cathepsin L enzyme assay. The format is biochemical. Conditions: Ki by Morrison equation; pH 5.5, substrate Z-Phe-Arg-Amc; read-out: Cat L. The text has this:
Two wells contained DMSO only for controls.
Velocity was converted to μM/sec.

A further assay deals with Calpain. Briefly: Calpain enzyme assay. The format is biochemical. Conditions: Ki by Morrison equation; pH 7.5, 5 mM CaCl2.
Another assay relates to MERS WT. Briefly: microbe, parasite or virus in culture. Conditions: Middle East respiratory syndrome-related coronavirus, read-out: MERS WT (μM). Format: cell-based.
A further assay addresses Cathepsin B (Homo sapiens, UniProt P07858). Briefly: Cathepsin B enzyme assay. Conditions: Cat B (μM), Ki by Morrison equation; pH 6.0, substrate Z-Phe-Arg-Amc.

*1 amine or outer side, *2 acyl side, *3 side chain or, on linkers, in order; H or OH if unused. Where a SMILES comes first, the peptide text is derived from it. [ ]: non-standard residue; d: D form. The star is where a group is joined. ξ: configuration not given here. ξ3Amino2oxobutanoyl = CC(N[*:1])C(=O)C(=O)[*:2]; 2Nal = N[CH](Cc1ccc2ccccc2c1)C(=O)O; Cbz = O=C(OCc1ccccc1)*

Sequence of Cathepsin L (P07711 114-333, species assumed): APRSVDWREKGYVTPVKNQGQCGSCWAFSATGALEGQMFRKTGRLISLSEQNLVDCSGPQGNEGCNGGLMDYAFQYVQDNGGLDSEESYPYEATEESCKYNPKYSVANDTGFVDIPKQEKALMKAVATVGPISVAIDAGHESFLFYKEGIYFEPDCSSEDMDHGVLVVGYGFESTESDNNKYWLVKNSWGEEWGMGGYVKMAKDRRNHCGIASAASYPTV

For the compound `CC(NC(=O)C(Cc1ccccc1)NC(=O)Cc1ccccc1)C(=O)C(=O)NC(CC1CC1)C(=O)NC(Cc1ccc(-c2ccccc2)cc1)C(N)=O` (stereo not drawn) [PHELIX260, N-(1-((3-([1,1′-biphenyl]-4-yl)-1-amino-1-oxopropan-2-yl)amino)-3-cyclopropyl-1-oxopropan-2-yl)-2-oxo-3-(3-phenyl-2-(2-phenylacetamido)propanamido)butanamide], the Ki on Cathepsin L was 0.27 nM; at Calpain, more than 10 µM; at Cathepsin B, 0.0178 µM. Further, the IC50 in the assay with MERS WT is 1.81 µM.
The like results for `CC(NC(=O)C(Cc1ccccc1)NC(=O)Cc1ccccc1)C(=O)C(=O)NC(Cc1ccccc1C(F)(F)F)C(=O)NC(Cc1ccc(-c2ccccc2)cc1)C(N)=O` (stereo not drawn) [PHELIX265, N-(1-((3-([1,1′-biphenyl]-4-yl)-1-amino-1-oxopropan-2-yl)amino)-1-oxo-3-(2-(trifluoromethyl)phenyl)propan-2-yl)-2-oxo-3-(3-phenyl-2-(2-phenylacetamido)propanamido)butanamide] were, in that order, 302 nM, more than 10 µM, more than 10 µM and 2.2 µM.
On to `CCC(C)C(NC(=O)C(=O)C(C)NC(=O)C(CC(C)C)NC(=O)Cc1ccccc1)C(=O)NC(C)(C)C(=O)O` (stereo not drawn) [PHELIX171, 5-(sec-butyl)-12-isobutyl-2,2,9-trimethyl-4,7,8,11,14-pentaoxo-15-phenyl-3,6,10,13-tetraazapentadecanoic acid], for which the Ki stood at 632 nM at Cathepsin L, 3.9 µM at Calpain and 0.56 µM at Cathepsin B.
As for `CC(NC(=O)C(Cc1ccccc1)NC(=O)Cc1ccccc1)C(=O)C(=O)NC(Cc1cccc(F)c1)C(=O)NC(Cc1ccc(-c2ccccc2)cc1)C(N)=O` (stereo not drawn) [PHELIX266, N-(1-((3-([1,1′-biphenyl]-4-yl)-1-amino-1-oxopropan-2-yl)amino)-3-(3-fluorophenyl)-1-oxopropan-2-yl)-2-oxo-3-(3-phenyl-2-(2-phenylacetamido)propanamido)butanamide], the Ki at Cathepsin L was 0.14 nM; at Calpain it was more than 10 µM; on Cathepsin B, more than 10 µM. Also, the IC50 in the assay on MERS WT is 0.78 µM.
Turning to `CCC(C)C(NC(=O)C(=O)C(C)NC(=O)[C@H](Cc1cncs1)NC(=O)Cc1ccccc1)C(=O)NC(C)(C)C(=O)O` (stereo partly drawn) [PHELIX173, (12S)-5-(sec-butyl)-2,2,9-trimethyl-4,7,8,11,14-pentaoxo-15-phenyl-12-(thiazol-5-ylmethyl)-3,6,10,13-tetraazapentadecanoic acid], the Ki is 3330 nM at Cathepsin L, more than 100 µM on Calpain and 0.72 µM on Cathepsin B.
Turning to `CC(C)C[C@H](NC(=O)C(c1ccccc1)c1ccccc1)C(=O)NC(C)C(=O)C(=O)NCC(=O)N[C@@H](Cc1ccc2ccccc2c1)C(N)=O` (stereo partly drawn) [PHELIX251, N-(4-((2-((1-amino-3-(naphthalen-2-yl)-1-oxopropan-2-yl)amino)-2-oxoethyl)amino)-3,4-dioxobutan-2-yl)-2-(2,2-diphenylacetamido)-4-methylpentanamide], the Ki on Cathepsin L came out at 1.4 nM; at Calpain, 0.025 µM; on Cathepsin B, 0.106 µM. The IC50 in the assay on MERS WT is more than 30 µM.
The like results for `C=CCOC(=O)NCCCCC(NC(=O)C(=O)C(NC(=O)C(CC(C)C)NC(=O)C(Cc1ccccc1)NC(=O)OCc1ccccc1)C(C)CC)C(N)=O` (stereo not drawn) [PHELIX269, benzyl (15-(sec-butyl)-11-carbamoyl-18-isobutyl-5,13,14,17,20-pentaoxo-22-phenyl-4-oxa-6,12,16,19-tetraazadocos-1-en-21-yl)carbamate] were, in that order, 4.13 nM, 0.00434 µM, 0.763 µM and more than 30 µM.
In the case of `CC(C)CC(NC(=O)C(Cc1ccccc1)NC(=O)OCc1ccccc1)C(=O)NC(C)C(=O)C(=O)NCC(=O)NC(Cc1ccc2ccccc2c1)C(N)=O` (stereo not drawn) [PHELIX258, benzyl (1-amino-12-isobutyl-9-methyl-2-(naphthalen-2-ylmethyl)-1,4,7,8,11,14-hexaoxo-16-phenyl-3,6,10,13-tetraazahexadecan-15-yl)carbamate] (Cbz-FL[ξ3Amino2oxobutanoyl]G[2Nal]-NH2; configuration not given here), the Ki on Cathepsin L was found to be 6.14 nM; on Calpain, 0.0019 µM; at Cathepsin B, 0.42 µM.
Turning to `CC(NC(=O)C(Cc1ccccc1)NC(=O)Cc1ccccc1)C(=O)C(=O)NC(Cc1ccc(C(F)(F)F)cc1)C(=O)NC(Cc1ccc(-c2ccccc2)cc1)C(N)=O` (stereo not drawn) [PHELIX261, N-(1-((3-([1,1′-biphenyl]-4-yl)-1-amino-1-oxopropan-2-yl)amino)-1-oxo-3-(4-(trifluoromethyl)phenyl)propan-2-yl)-2-oxo-3-(3-phenyl-2-(2-phenylacetamido)propanamido)butanamide], the Ki is 2.48 nM at Cathepsin L, more than 10 µM at Calpain and more than 10 µM on Cathepsin B. Also, in the assay with MERS WT, the IC50 is 2.56 µM.
Regarding `CCC(C)C(NC(=O)C(=O)C(C)NC(=O)C(Cc1cccc(C(F)(F)F)c1)NC(=O)Cc1ccccc1)C(=O)NC(C)(C)C(=O)O` (stereo not drawn) [PHELIX170, 5-(sec-butyl)-2,2,9-trimethyl-4,7,8,11,14-pentaoxo-15-phenyl-12-(3-(trifluoro-methyl)benzyl)-3,6,10,13-tetraazapentadecanoic acid], the values for the Ki on Cathepsin L, at Calpain and on Cathepsin B were 1190 nM, 59.7 µM and 0.022 µM, respectively.
With `CC(NC(=O)C(Cc1ccccc1)NC(=O)Cc1ccccc1)C(=O)C(=O)NC(Cc1ccccc1)C(=O)NC(C)(C)C(=O)O` (stereo not drawn) [PHELIX157, 5,12-dibenzyl-2,2,9-trimethyl-4,7,8,11,14-pentaoxo-15-phenyl-3,6,10,13-tetraazapentadecanoic acid], the Ki at Cathepsin L turned out to be 56.2 nM; at Calpain, 34.6 µM; at Cathepsin B it was 0.0028 µM.
The like results for `CC(NC(=O)C(Cc1ccccc1)NC(=O)Cc1ccccc1)C(=O)C(=O)NC(Cc1ccc(F)cc1)C(=O)NC(Cc1ccc(-c2ccccc2)cc1)C(N)=O` (stereo not drawn) [PHELIX262] were, in that order, 0.04 nM, more than 10 µM and 0.435 µM.
The like results for `CC[C@H](C)[C@H](NC(=O)C(=O)C(C)(C)NC(=O)[C@H](Cc1ccccc1)NC(=O)Cc1ccccc1)C(=O)NC(C)(C)C(=O)O` [PHELIX160, 12-benzyl-5-(sec-butyl)-2,2,9,9-tetramethyl-4,7,8,11,14-pentaoxo-15-phenyl-3,6,10,13-tetraazapentadecanoic acid] were, in that order, 63400 nM, 51 µM and 111 µM.
The like results for `CCCC(NC(=O)C(=O)C(C)NC(=O)C(Cc1ccccc1)NC(=O)Cc1ccccc1)C(=O)NC(C)(C)C(N)=O` (stereo not drawn) [PHELIX243, N-(1-amino-2-methyl-1-oxopropan-2-yl)-2-(2-oxo-3-(3-phenyl-2-(2-phenylacetamido)propanamido)butanamido)pentanamide] were, in that order, 5580 nM, more than 10 µM and more than 10 µM.
Turning to `CCC(C)C(NC(=O)C(=O)C(C)NC(=O)C(Cc1ccccc1)NC(=O)Cc1ccccc1)C(=O)NC(C)(C)C(=O)O` (stereo not drawn) [PHELIX149, 12-benzyl-5-(sec-butyl)-2,2,9-trimethyl-4,7,8,11,14-pentaoxo-15-phenyl-3,6,10,13-tetraazapentadecanoic acid], the Ki is 816 nM on Cathepsin L, more than 100 µM on Calpain and 0.0318 µM on Cathepsin B.

The values are drawn from patent US20190085024A1, “Alpha-Ketoamide Inhibitors Of Cysteine Proteases” (Phelix Therapeutics, priority 2017, published 2019).
